Data set [1] in a line: Nanoparticle preparation: particle size and its stability. The data set is classed as physicochemical. As to conditions: for nanoparticle size: about 100 mM ethanol stock with 25% (w/w) Miglyol, diluted 1/10 in 0.2% PVP and 0.25 mM SDS in water, ultrasonication; for particle sizes after 6 hours at room temperature: nanoparticles after 1/10 dilution in 0.2% PVP and 0.25 mM SDS in water. How it is done: In order to prepare nanoparticles a stock solution of Compound A of about 100 mM in ethanol was used. Included was also 25% (w/w) Miglyol, calculated on the amount of the substance. The solutions were diluted 1/10 with the stabilizer solution, consisting of 0.2% (w/w) PVP and 0.25 mM SDS in water. The mixing, which is considered as a critical parameter during the nanoparticle preparation, was rapid and instant. The drug solution was rapidly injected into the stabilizer solution during ultrasonication. After the 1/10 dilution in the aqeous solution, nanoparticles of about 150 nm were achieved. After 6 hours at room temperature, the particle sizes were unchanged.
To prepare nanoparticles a stock solution of Compound B of about 100 mM in ethanol was used. Included was also 25% (w/w) Miglyol, calculated on the amount of the substance. The solutions were diluted 1/10 with a stabilizer solution consisting of 0.2% (w/w) PVP and 0.25 mM SDS in water. The critical mixing stage was rapid and instant:—The drug solution was rapidly injected into the stabilizer solution during ultrasonication. After 1/10 dilution in the aqeous solution, nanoparticles of about 110 nm were obtained. After 6 hours at room temperature, the particle sizes were unchanged.

Data set [2] can be described thus: Storage stability of liquid formulations. The data set is classed as physicochemical. How it is done:
The pH of this solution was set to 3.8 by addition of HCl. The solubility of Compound A is at least 1000 times higher in this vehicle compared to water alone. Formulations of Compound A in this vehicle are stable for at least 3 months at <−15° C.

The nature of another data set: pH of the formulation. Type of data set: physicochemical. The procedure: A formulation was prepared by dissolving Compound A in acidified PEG 400/ethanol/water 20/10/70 (w/w) % that was followed by gently stirring. The pH of this solution was 3.6. The solubility of Compound A is at least 250 times higher in this vehicle compared to water alone.
A formulation was prepared by dissolving Compound E in 9 mg/ml NaCl by gently stirring. The pH obtained in this formulation is 8-9.
A formulation was prepared by dissolving Compound F in 9 mg/ml NaCl by gently stirring. The pH obtained in this formulation is 3-4. Formulations of F in this vehicle are stable for at least 2 weeks at room temperature and below.

A short description of data set [3]: Plasma concentration 1 hour after oral or subcutaneous administration of solution to rats.
Experimental: A formulation was prepared by dissolving Compound C in saline/ethanol/solutol 90/5/5 (w/w) % followed by gently stirring.
Data set [4] can be described thus: Solubility in vehicle compared to water alone. Type of data set: physicochemical.

Take `CO/N=C(\N)c1cc(F)c(CNC(=O)[C@@H]2CCN2C(=O)[C@H](O)c2cc(Cl)cc(OC(F)F)c2)c(F)c1` [Compound B, Ph(3-Cl)(5-OCHF2)—(R)CH(OH)C(O)—(S)Aze-Pab(2,6-diF)(OMe)]: in data set [1], the nanoparticle size result is “about 110 nm” and the “particle sizes after 6 hours at room temperature” value was “unchanged”. Also, in data set [2] (Example 69: 0.5 mg/mL in PEG 400/ethanol/water 50/5/45, at <−15° C.), the “time the formulation is stable” value is listed as “at least 1 month”.

On to `N=C(N)c1cc(F)c(CNC(=O)[C@@H]2CCN2C(=O)[C@H](O)c2cc(Cl)cc(OC(F)F)c2)c(F)c1` [Compound E, Ph(3-Cl)(5-OCHF2)—(R)CH(OH)C(O)—(S)Aze-Pab(2,6-diF)], for which the “pH obtained in this formulation” value in “pH of the formulation” (Example 72: dissolved in 9 mg/ml NaCl) is 8-9. In addition, the “plasma concentration after 1 hour” value in data set [3] (oral, dosed: Compound B 4 μmol/mL in saline/ethanol/solutol 90/5/5) is 650 nM; in data set [3] (subcutaneous, dosed: Compound B 4 μmol/mL in saline/ethanol/solutol 90/5/5), 300 nM; in data set [3] (subcutaneous, dosed: Compound E acetate salt 4 μmol/mL in saline/ethanol) it was 750 nM.

For `CO/N=C(\N)c1ccc(CNC(=O)[C@@H]2CCN2C(=O)[C@H](O)c2cc(Cl)cc(OC(F)F)c2)cc1` [Compound A, Ph(3-Cl)(5-OCHF2)—(R)CH(OH)C(O)—(S)Aze-Pab(OMe)], in data set [1], the nanoparticle size entry was “about 150 nm”. Besides, the “particle sizes after 6 hours at room temperature” value in data set [1] is “unchanged”. Besides, the “solubility in this vehicle compared to water alone” value in data set [4] (Example 4: PEG 400/ethanol/water 50/5/45 (w/w) %) is listed as “at least 1000 times”; in data set [4] (Example 5: PEG 400/ethanol/water 20/10/70 (w/w) %), “at least 100 times”; in data set [4] (Example 6: acidified PEG 400/ethanol/water 20/10/70, water with 50 μmol/mL tartaric acid, pH 3.6), “at least 250 times”; in data set [4] (Example 7: PEG 400/ethanol/water 30/5/65 (w/w) %), “at least 200 times”; in data set [4] (Example 8: acidified PEG 400/ethanol/water 30/5/65, tartaric acid, HCl to pH 3.6) it was “at least 400 times”; in data set [4] (Example 9: PEG 400/ethanol/water 40/5/55 (w/w) %) it was “at least 600 times”. In addition, the “solubility in this vehicle compared to water alone” value is listed as “at least 1000 times” in data set [4] (Example 10: acidified PEG 400/ethanol/water 40/5/55, tartaric acid, HCl to pH 3.8); “at least 700 times” in data set [4] (Example 11: Hydroxypropyl-β-cyclodextrin/water 40/60 (w/w) %, pH set to 4.7 by HCl); “at least 400 times” in data set [4] (Example 12: Hydroxypropyl-β-cyclodextrin/water 28/72 (w/w) %); “at least 80 times” in data set [4] (Example 13: PEG 400/ethanol/solutol/water 50/5/5/40 (w/w) %); “at least 200 times” in data set [4] (Example 14: PEG 400/water 40/60 (w/w) %); “at least 250 times” in data set [4] (Example 15: PEG 400/water 35/65 (w/w) %, water with 50 μmol/mL tartaric acid). In addition, the “solubility in this vehicle compared to water alone” value in data set [4] (Example 16: PEG 400/water 50/50 (w/w) %) is recorded as “at least 300 times”; in data set [4] (Example 17: PEG 400/water 67/33 (w/w) %) it was “at least 400 times”; in data set [4] (Example 18: PEG 400/ethanol/water 45/1/54 (w/w) %), “at least 450 times”; in data set [4] (Example 19: acidified PEG 400/ethanol/water 45/1/54, tartaric acid, HCl to pH 4.2), “at least 800 times”; in data set [4] (Example 20: PEG 400/ethanol/water 45/2/53 (w/w) %), “at least 500 times”; in data set [4] (Example 21: acidified PEG 400/ethanol/water 45/2/53, tartaric acid, HCl to pH 4.3), “at least 800 times”. The “solubility in this vehicle compared to water alone” value is on record as “at least 230 times” in data set [4] (Example 22: DMA/water 50/50 (w/w) %); “at least 150 times” in data set [4] (Example 23: DMA/water 25/75 (w/w) %); “at least 20 times” in data set [4] (Example 24: water with double equimolar HCl, pH adjusted to 3.6); “at least 40 times” in data set [4] (Example 25: water, HCl to pH 1, then NaOH to pH 3.0); “at least 4000 times” in data set [4] (Example 26: DMA/miglyol (miglyol 0.25 g/g Compound A)); “at least 4000 times” in data set [4] (Example 27: Ethanol/Miglyol (miglyol 0.25 g/g Compound A)). In addition, the “solubility in this vehicle compared to water alone” value in data set [4] (Example 57: PEG 400/ethanol/water 25/10/65 (w/w) %) is given as “at least 100 times”; in data set [4] (Example 58: PEG 400/ethanol/water 50/10/40 (w/w) %) it was “at least 2000 times”; in data set [4] (Example 59: PEG 400/ethanol/water 40/10/50 (w/w) %), “at least 1500 times”; in data set [4] (Example 60: ethanol, citric acid and water, pH set to 3.2) it was “at least 100 times”. In addition, the “pH of this solution” value in the data set “pH of the formulation” (Example 6: 51 μmol/mL in PEG 400/ethanol/water 20/10/70, water with 50 μmol/mL tartaric acid) stood at 3.6. Also, the “time the formulation is stable” value in data set [2] (Example 10: acidified PEG 400/ethanol/water 40/5/55, pH 3.8, at <−15° C.) was “at least 3 months”; in data set [2] (Example 57: PEG 400/ethanol/water 25/10/65, in a freezer), “at least 2 months”; in data set [2] (Example 60: ethanol, citric acid and water, pH 3.2, in a freezer) it was “at least 1 month”; in data set [2] (Example 61: citric acid in physiological saline, pH 3.6, in a freezer), “at least 3 months”; in data set [2] (Example 62: PEG 400/ethanol/water 40/5/55 containing citric acid, pH 3.6, in a freezer), “at least 1 month”; in data set [2] (Example 67: citric acid in physiological saline, pH 3.6, in a freezer) it was “at least 3 months”. The “time the substance is stable in this formulation” value in data set [2] (Example 28: 130 μmol/mL in ethanol) is on record as “more than 1 week”.

As for `N=C(N)c1ccc(CNC(=O)[C@@H]2CCN2C(=O)[C@H](O)c2cc(Cl)cc(OCCF)c2)cc1` [Compound F, Ph(3-Cl)(5-OCH2CH2F)—(R)CH(OH)C(O)—(S)Aze-Pab], the “pH obtained in this formulation” value in the data set “pH of the formulation” (Example 75: dissolved in 9 mg/ml NaCl) is 3-4. Moreover, the “time the formulation is stable” value in data set [2] (Example 75: 9 mg/ml NaCl, at room temperature and below) is “at least 2 weeks”. Further, the “plasma concentration after 1 hour” value in data set [3] (oral, dosed: Compound C 4 μmol/mL in saline/ethanol/solutol 90/5/5) was 500 nM; in data set [3] (subcutaneous, dosed: Compound C 4 μmol/mL in saline/ethanol/solutol 90/5/5), 500 nM; in data set [3] (subcutaneous, dosed: Compound F trifluoroacetate salt 4 μmol/mL in saline/ethanol), 920 nM.

As to `CO/N=C(\N)c1ccc(CNC(=O)[C@@H]2CCN2C(=O)[C@H](O)c2cc(Cl)cc(OCCF)c2)cc1` [Compound C, Ph(3-Cl)(5-OCH2CH2F)—(R)CH(OH)C(O)—(S)Aze-Pab(OMe)], the “time the formulation is stable” value is reported as “at least 1 month” in data set [2] (Example 73: 0.5 mg/mL in PEG 400/ethanol/water 50/5/45, at room temperature and below); “at least 2 weeks” in data set [2] (Example 74: Hydroxypropyl-β-cyclodextrin/water 20/80, at <8° C.).

On to `N=C(N)c1ccc(CNC(=O)[C@@H]2CCN2C(=O)[C@H](O)c2cc(Cl)cc(OC(F)F)c2)cc1` [Compound D, Ph(3-Cl)(5-OCHF2)—(R)CH(OH)C(O)—(S)Aze-Pab], for which the “time the formulation is stable” value in data set [2] (Example 64: acidified PEG 400/ethanol/water 40/5/55, pH 3.6, at <−15° C.) was “at least 2 months”. In addition, the “plasma concentration after 1 hour” value was 560 nM in data set [3] (oral, dosed: Compound A 4 μmol/mL in saline/ethanol/solutol 90/5/5); 240 nM in data set [3] (subcutaneous, dosed: Compound A 4 μmol/mL in saline/ethanol/solutol 90/5/5); 550 nM in data set [3] (subcutaneous, dosed: Compound D trifluoroacetate salt 4 μmol/mL in saline/ethanol).

The values above are taken from patent publication US20060014734A1, “Immediate release pharmaceutical formulation” (priority 2002, published 2006).
